Literature values, collected in US11219662B2, “Methods for treating hypotension in a patient that has received an ACE inhibitor by administering angiotensin II” (La Jolla Pharma, LLC, priority 2016, dated 2022).

Settings: no experiment described

CC[C@H](C)[C@H](NC(=O)[C@H](Cc1ccc(O)cc1)NC(=O)[C@@H](N)C(C)C)C(=O)N[C@@H](Cc1cnc[nH]1)C(=O)N1CCC[C@H]1C(=O)N[C@@H](Cc1ccccc1)C(=O)O [Angiotensin IV, Val-Tyr-Ile-His-Pro-Phe]
activity compared with angiotensin II (qualitative background statement): less activity than angiotensin II

Arg-Val-Tyr-Ile-His-Pro-Phe (RVYIHPF; printed: Arg-Val-Tyr-Ile-His-Pro-Phe) [Angiotensin III]
activity relative to the activity of angiotensin II (of the activity of angiotensin II, background statement): approximately 40%
